Laboratory results as given in patent US8183292B2, “Chiral cyclic β-amino acids and their derivatives, pharmaceutical compositions containing them and the use of such compounds” (BioBlocks Magyarorszag Gyogyszerkemiai es Fejleszto Kft., priority 2006, dated 2012).

Columns and labels:
[1] = test system: P-glycoprotein; assay: Reversal of multidrug resistance: rhodamine 123 accumulation in human mdr1 transfected L5178 mouse T-cell lymphoma cells (flow cytometry); assay type: cell-based; settings: for Vrel = effect related to Verapamil: Verapamil at 10 μg/ml; for R (activity ratio, fluorescence) / R = ratio of fluorescence and activity: rhodamine 123; for Multidrug resistance reversing effect (in words): 4 and 40 μg/mL, at higher concentration multiple of fluorescence activity of Verapamil; for R: Table 4 concentration series
Experimental: L5178 mouse T-cell lymphoma cells were transfected with pHa MDR1/A retrovirus, by the method as described by J. L. Weaver [J. L. Weaver, G. Szabó, P. S. Pine, M. M. Gottesmann, S. Goldenberg and A. Aszalos: The effect of ion channel blockers, immunosuppressive agents and other drugs on the activity of the multidrug transporter. Int. […] Mdr-1-expressing cell lines were selected by culturing the transfected cells with 60 ng/mL of colchicine to maintain the expression of the MDR phenotype. L5178 (parent) mouse T-cell lymphoma cells and the human mdr1 transfected subline were cultured in McCoy's 5A medium supplemented with 10% by mass of heath-inactivated horce serum, L-glutamine and antibiotics. Both cell lines were cultured at 37° C. The mouse lymphoma cell line was maintained in a 5% CO2 atmosphere.
The assays were carried out by the method as described by J. Molnár et al. [J. Molnár, I. Mucsi, J. Nacsa, A. Hevér, N. Gyémánt, K. Ugocsai, P. Hegyes, S. Kiessig, D. Gaal, H. Lage and A. Varga: New silicon compounds as resistance modifiers against multidrug-resistant cells. […] The cell density was set to a value of 2×10^6/mL, then the cells were resuspended in a serum-free McCoy's 5A medium and divided in aliquots of 0.5 mL in Eppendorf centrifuge tubes. The tested compounds were added in different concentrations to different volumes (2.0-20.0 μL) of 1.0-10.0 mg/mL stock solutions and the samples were incubated for 10 minutes at room temperature. […] The fluorescence of the cell population was measured with a Beckton Dickinson FACScan flow cytometer. […] The percentage value of the mean fluorescence intensity was calculated for the treated MDR and for the parental cell lines as compared with the values obtained with the untreated cells. The activity ratio (R) was calculated on the basis of the measured fluorescence values by the following equation: […]

[2] = test system: MRC-5 human fibroblast cell lines; assay: Cytotoxicity on MRC-5 human fibroblast cell lines (Alamar Blue/resazurine, 24 h); assay type: cell-based; settings: MRC-5 cells, 24 hours incubation, 1% DMSO
Experimental: The toxic effect of the compounds was measured on MRC-5 human fibroblast cell lines in accordance with the method that has been described in the article published by Molnár et al. [L. Molnár, G. M. Keserü, Á. Papp, Z. Lörincz, G. Ambrus és F. Darvas.: A neural network based classification scheme for cytotoxicity predictions: Validation on 30,000 compounds, Bioorg. Med. Chem. Lett. 16(4), 1037-9 (2006)]. The cells were incubated for a cell cycle (24 hours) with solutions of various concentrations prepared from the compounds, in the presence of 1% of DMSO. 3 parallel measurements were carried out with 6 different concentrations. The ratio of the viable cells was determined by reducing the Alamaar Blue (resazurine) reagent that was followed fluorimetrically. The measured materials were not toxic on the given cell line in a concentration of 128 μmol after incubation for one day.
In the following Table 1 the cytotoxicity of some compounds according to the invention is given.

| melting point [°C] | SMILES | Vrel = effect related to Verapamil ([1]; Table 2, 4 μg/ml) | R (activity ratio, fluorescence) ([1]; Table 2, 4 μg/ml) | Vrel = effect related to Verapamil ([1]; Table 2, 40 μg/ml) | R (activity ratio, fluorescence) ([1]; Table 2, 40 μg/ml) | Survival (%) [c = 128 μM] [2] [%] | also measured |
| --- | --- | --- | --- | --- | --- | --- | --- |
| 250 to 252 | CC1(C)[C@H]2C[C@@H](C(=O)O)[C@H](N)[C@@H]1C2 [Compound 29, (1R,2R,3R,5R)-2-Amino-6,6-Dimethylbicyclo[3.1.1]Heptan-3-Carboxylic Acid] | – | – | – | – | – | – |
| 118 to 120 | CCOC(=O)[C@@H]1C[C@H]2C[C@@H]([C@H]1NC(=S)Nc1cccc(OC)c1)C2(C)C [Compound 49, (1R,2R,3R,5R)-1-(3-Ethoxycarbonyl-6,6-Dimethylbicyclo[3.1.1]Heptan-2-yl)-3-(3-Methoxyphenyl)-Thiourea] | 0.56 | 2.77 | 5.71 | 28.07 | 250.9 | Multidrug resistance reversing effect (in words) [1]: significant dose-dependent effect |
| 109 to 112 | CCOC(=O)[C@H]1C[C@H]2C[C@@H]([C@H]1N(Cc1ccccc1)C(=S)Nc1cccc(OC)c1)C2(C)C [Compound 47, (1R,2R,3S,5R)-1-Benzyl-1-(3-Ethoxycarbonyl-6,6-Dimethylbicyclo[3.1.1]Heptan-2-yl)-3-(3-Methoxyphenyl)-Thiourea] | – | – | – | – | 97.7 | Effect in concentration series (in words) ([1]; 0.04, 0.08, 0.4, 0.8 and 4 μg/mL): Dose-dependence was observed; Multidrug resistance reversing effect (in words) [1]: significant dose-dependent effect; Vrel = effect related to Verapamil ([1]; Table 3, 4 μg/ml): 3.02; R = ratio of fluorescence and activity ([1]; Table 3, 4 μg/ml): 34.76; Vrel = effect related to Verapamil ([1]; Table 3, 40 μg/ml): 3.07; R = ratio of fluorescence and activity ([1]; Table 3, 40 μg/ml): 35.35; R ([1]; 0.04 μg/ml): 1.44; R ([1]; 0.08 μg/ml): 1.60; R ([1]; 0.4 μg/ml): 6.03; R ([1]; 0.8 μg/ml): 7.16; R ([1]; 4 μg/ml): 35.20; Concentration sufficient for a significant P-glycoprotein-inhibiting effect ([1]; concentration series 0.04-4 μg/mL): 0.4 µg/mL; Multidrug resistance reversing effect at lower concentrations (in words) ([1]; lower concentration (4 μg/mL), similar values at higher concentration, indicating saturation): considerable multidrug resistance reversing effect |
| 202 to 205 | CCOC(=O)[C@H]1C[C@H]2C[C@@H]([C@H]1N(Cc1ccccc1)C(=O)Nc1ccc(Cl)cc1)C2(C)C [Compound 48, (1R,2R,3S,5R)-1-Benzyl-1-(3-Ethoxycarbonyl-6,6-Dimethylbicyclo[3.1.1]Heptan-2-yl)-3-(4-Chlorophenyl)-Urea] | – | – | – | – | – | – |
| 155 to 157 | COC(=O)N(C1c2ccccc2-c2ccccc21)[C@H]1[C@H](C(=O)O)C[C@H]2C[C@@H]1C2(C)C [Compound 30, (1R,2R,3R,5R)-2-(9H-Fluoren-9-yl-Methoxycarbonylamino)-6,6-Dimethylbicyclo[3.1.1]Heptan-3-Carboxylic Acid] | – | – | – | – | – | – |
| 125 to 126 | CCOC(=O)[C@H]1C[C@H]2C[C@@H]([C@H]1NC(=S)NCCc1ccc(OC)c(OC)c1)C2(C)C [Compound 46, (1R,2R,3S,5R)-1-(3-Ethoxycarbonyl-6,6-Dimethylbicyclo[3.1.1]Heptan-2-yl) -3-(3,4-Dimethoxyphenylethyl)-Thiourea] | 0.82 | 4.02 | 4.46 | 21.92 | 182.2 | Multidrug resistance reversing effect (in words) [1]: significant dose-dependent effect |

Second part, the molecule before the results:

| SMILES | melting point [°C] | Vrel = effect related to Verapamil ([1]; Table 2, 4 μg/ml) | R (activity ratio, fluorescence) ([1]; Table 2, 4 μg/ml) | Vrel = effect related to Verapamil ([1]; Table 2, 40 μg/ml) | R (activity ratio, fluorescence) ([1]; Table 2, 40 μg/ml) | Survival (%) [c = 128 μM] [2] [%] | also measured |
| --- | --- | --- | --- | --- | --- | --- | --- |
| CCOC(=O)[C@@H]1C[C@@H]2C[C@H]([C@@H]1NC(=S)Nc1cccc(OC)c1)C2(C)C [Compound 54, (1S,2S,3R,5S)-1-(3-Ethoxycarbonyl-6,6-Dimethylbicyclo[3.1.1]Heptan-2-yl) -3-(3-Methoxyphenyl)-Thiourea] | – | 0.48 | 2.37 | 5.36 | 26.35 | – | – |
| CCOC(=O)[C@H](Cc1ccccc1)NC(=O)[C@@H]1C[C@@H]2C[C@H]([C@@H]1NC(=O)OC(C)(C)C)C2(C)C [Compound 38] | – | 0.79 | 2.33 | 6.73 | 19.92 | 125.3 | – |
| CCOC(=O)[C@H]1C[C@@H]2C[C@H]([C@@H]1NC(=O)Nc1ccc(Cl)cc1)C2(C)C [Compound 56, (1S,2S,3S,5S)-1-(3-Ethoxycarbonyl-6,6-Dimethylbicyclo[3.1.1]Heptan-2-yl)-3-(4-Chlorophenyl)-Urea] | – | – | – | – | – | 116.8 | Multidrug resistance reversing effect (in words) [1]: significant dose-dependent effect; Vrel = effect related to Verapamil ([1]; Table 3, 4 μg/ml): 0.14; R = ratio of fluorescence and activity ([1]; Table 3, 4 μg/ml): 1.57; Vrel = effect related to Verapamil ([1]; Table 3, 40 μg/ml): 3.43; R = ratio of fluorescence and activity ([1]; Table 3, 40 μg/ml): 39.39 |
| CCOC(=O)[C@@H]1C[C@H]2C[C@@H]([C@H]1NC(=S)NCCc1ccc(OC)c(OC)c1)C2(C)C [Compound 51, (1R,2R,3R,5R)-1-(3-Ethoxycarbonyl-6,6-Dimethylbicyclo[3.1.1]Heptan-2-yl)-3-(3,4-Dimethoxyphenyl-Ethyl)-Thiourea] | – | 2.70 | 13.29 | 9.96 | 49.02 | – | Multidrug resistance reversing effect (in words) [1]: significant dose-dependent effect |
| CNC(=O)[C@H]1[C@@H](NC(=O)OC(C)(C)C)C[C@H]2C[C@H]1C2(C)C [Compound 12, tert-Butyl (1R,2R,3S,5R)-(2-Methylaminocarbonyl-6,6-Dimethylbicyclo[3.1.1]-Hept-3-yl)Carbamate] | 104 to 105 | – | – | – | – | – | – |
| CC1(C)[C@H]2C[C@@H]3C(=O)N[C@@H]3[C@@H]1C2 [Compound 10, (1R,2R,5S,7R)-8,8-Dimethyl-3-Azatricyclo[5.1.1.0^2,5]Nonan-4-One] | 68 to 72 | – | – | – | – | – | – |
| CCOC(=O)[C@H]1C[C@@H]2C[C@H]([C@@H]1NC(=S)Nc1cccc(OC)c1)C2(C)C [Compound 55, (1S,2S,3S,5S)-1-(3-Ethoxycarbonyl-6,6-Dimethylbicyclo[3.1.1]Heptan-2-yl)-3-(3-Methoxyphenyl)-Thiourea] | – | 0.62 | 3.07 | 2.44 | 11.99 | 214.1 | – |
| CC1(C)[C@H]2C[C@H](C(=O)O)[C@H](N)[C@@H]1C2 [Compound 13, (1R,2R,3S,5R)-2-Amino-6,6-Dimethylbicyclo[3.1.1]Heptan-3-Carboxylic Acid] | 270 | – | – | – | – | – | – |
| CC1(C)[C@@H]2C[C@H](C(=O)O)[C@@H](NC(=O)OCC3c4ccccc4-c4ccccc43)[C@H]1C2 [Compound 41, (1S,2S,3S,5S)-2-(9H-Fluoren-9-yl-Methoxycarbonylamino)-6,6-Dimethylbicyclo[3.1.1]Heptan-3-Carboxylic Acid] | – | – | – | – | – | – | Vrel = effect related to Verapamil ([1]; Table 3, 4 μg/ml): 0.07; R = ratio of fluorescence and activity ([1]; Table 3, 4 μg/ml): 0.86; Vrel = effect related to Verapamil ([1]; Table 3, 40 μg/ml): 0.11; R = ratio of fluorescence and activity ([1]; Table 3, 40 μg/ml): 1.25 |
| COC(=O)N(C1c2ccccc2-c2ccccc21)[C@H]1[C@@H](C(=O)O)C[C@H]2C[C@@H]1C2(C)C [Compound 18, (1R,2R,3S,5R)-2-(9H-Fluoren-9-yl-Methoxycarbonylamino)-6,6-Dimethylbicyclo[3.1.1]Heptan-3-Carboxylic Acid] | 160 to 162 | – | – | – | – | – | – |
| CC(C)(C)OC(=O)N1C(=O)[C@H]2C[C@H]3C[C@@H]([C@H]21)C3(C)C [Compound 11, (1R ,2R,5S,7R)-N-tert-Butoxycarbonyl-8,8-Dimethyl-3-Azatricyclo[5.1.1.0^2,5]-Nonan-4-One] | 64 to 66 | – | – | – | – | – | – |
| CCOC(=O)[C@H](Cc1ccccc1)NC(=O)[C@H]1C[C@H]2C[C@@H]([C@H]1NC(=O)OC(C)(C)C)C2(C)C [Compound 17] | – | – | – | – | – | – | Vrel = effect related to Verapamil ([1]; Table 3, 4 μg/ml): 1.58; R = ratio of fluorescence and activity ([1]; Table 3, 4 μg/ml): 23.1; Vrel = effect related to Verapamil ([1]; Table 3, 40 μg/ml): 6.45; R = ratio of fluorescence and activity ([1]; Table 3, 40 μg/ml): 94.24 |
